The values below come from PMC9030254, “Target Hopping from Protein Kinases to PXR: Identification of Small-Molecule Protein Kinase Inhibitors as Selective Modulators of Pregnane X Receptor from TüKIC Library” (Cells, 2022).

Molecules are shown by their SMILES.

Common to all, as to experiment: Kinase profiling
Common to all, as to assay type: biochemical

One test has as its target T1, PDK1 (Homo sapiens, UniProt O15530).
T1 construct: purchased ProQinase (Freiburg, Germany)
T1 sequence (O15530 1-556): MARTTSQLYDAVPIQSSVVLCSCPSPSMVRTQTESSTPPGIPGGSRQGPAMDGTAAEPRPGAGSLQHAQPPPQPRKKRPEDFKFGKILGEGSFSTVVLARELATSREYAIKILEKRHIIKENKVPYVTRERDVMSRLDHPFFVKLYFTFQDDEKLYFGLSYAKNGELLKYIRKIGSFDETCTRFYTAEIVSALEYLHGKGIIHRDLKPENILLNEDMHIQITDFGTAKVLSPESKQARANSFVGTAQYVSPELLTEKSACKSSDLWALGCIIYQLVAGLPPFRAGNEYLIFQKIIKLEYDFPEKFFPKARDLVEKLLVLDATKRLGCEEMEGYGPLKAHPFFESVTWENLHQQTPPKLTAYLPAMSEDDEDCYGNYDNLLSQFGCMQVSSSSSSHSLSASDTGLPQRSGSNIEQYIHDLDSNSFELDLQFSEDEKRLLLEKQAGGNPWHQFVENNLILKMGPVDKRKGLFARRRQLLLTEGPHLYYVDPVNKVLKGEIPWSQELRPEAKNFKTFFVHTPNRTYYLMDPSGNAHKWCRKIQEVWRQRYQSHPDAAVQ
How it is done:
(§1) The analysis was performed by ProQinase (Freiburg, Germany).

Another test has as its target T2, TGFBR2 (Homo sapiens, UniProt P37173).
T2 construct: purchased ProQinase (Freiburg, Germany)
How it is done: as §1

For the next test, the target named is T3, TRKC (Homo sapiens, UniProt Q16288).
T3 construct: purchased ProQinase (Freiburg, Germany)
How it is done: as §1

The next test concerns the target T4, PHKG1 (Homo sapiens, UniProt Q16816).
T4 construct: purchased ProQinase (Freiburg, Germany)
How it is done: as §1

For the next test, the target named is T5, CDK19/CycC (Homo sapiens, UniProt Q9BWU1).
T5 construct: purchased ProQinase (Freiburg, Germany)
How it is done: as §1

A further test has as its target T6, GRK2 (Homo sapiens, UniProt P25098).
T6 construct: purchased ProQinase (Freiburg, Germany)
T6 sequence (P25098 1-689): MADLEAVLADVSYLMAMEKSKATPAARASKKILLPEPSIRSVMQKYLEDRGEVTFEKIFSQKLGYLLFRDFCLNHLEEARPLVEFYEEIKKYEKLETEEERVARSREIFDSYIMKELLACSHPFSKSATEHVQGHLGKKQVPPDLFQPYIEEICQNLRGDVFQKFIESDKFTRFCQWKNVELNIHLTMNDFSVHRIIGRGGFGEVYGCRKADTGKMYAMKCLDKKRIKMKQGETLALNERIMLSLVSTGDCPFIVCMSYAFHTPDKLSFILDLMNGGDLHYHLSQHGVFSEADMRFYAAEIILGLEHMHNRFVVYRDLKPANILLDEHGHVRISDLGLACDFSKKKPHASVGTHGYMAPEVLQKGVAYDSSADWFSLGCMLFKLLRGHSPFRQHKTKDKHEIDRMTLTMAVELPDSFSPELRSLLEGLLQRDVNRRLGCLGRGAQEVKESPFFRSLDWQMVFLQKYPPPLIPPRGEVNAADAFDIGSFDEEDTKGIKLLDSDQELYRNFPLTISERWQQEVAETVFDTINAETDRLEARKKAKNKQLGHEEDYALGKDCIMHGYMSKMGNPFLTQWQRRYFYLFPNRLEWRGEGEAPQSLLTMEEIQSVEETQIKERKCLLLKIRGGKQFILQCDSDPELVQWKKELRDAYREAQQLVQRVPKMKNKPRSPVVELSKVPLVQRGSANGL
How it is done:
as §1

A further test addresses T7, CLK1 (Homo sapiens, UniProt P49759).
T7 construct: purchased ProQinase (Freiburg, Germany)
How it is done:
as §1

In the next test the target is T8, MYLK (Homo sapiens, UniProt Q15746).
T8 construct: purchased ProQinase (Freiburg, Germany)
How it is done:
as §1

Another test deals with T9, MEKK2 (Homo sapiens, UniProt Q9Y2U5).
T9 construct: purchased ProQinase (Freiburg, Germany)
T9 sequence (Q9Y2U5 1-619): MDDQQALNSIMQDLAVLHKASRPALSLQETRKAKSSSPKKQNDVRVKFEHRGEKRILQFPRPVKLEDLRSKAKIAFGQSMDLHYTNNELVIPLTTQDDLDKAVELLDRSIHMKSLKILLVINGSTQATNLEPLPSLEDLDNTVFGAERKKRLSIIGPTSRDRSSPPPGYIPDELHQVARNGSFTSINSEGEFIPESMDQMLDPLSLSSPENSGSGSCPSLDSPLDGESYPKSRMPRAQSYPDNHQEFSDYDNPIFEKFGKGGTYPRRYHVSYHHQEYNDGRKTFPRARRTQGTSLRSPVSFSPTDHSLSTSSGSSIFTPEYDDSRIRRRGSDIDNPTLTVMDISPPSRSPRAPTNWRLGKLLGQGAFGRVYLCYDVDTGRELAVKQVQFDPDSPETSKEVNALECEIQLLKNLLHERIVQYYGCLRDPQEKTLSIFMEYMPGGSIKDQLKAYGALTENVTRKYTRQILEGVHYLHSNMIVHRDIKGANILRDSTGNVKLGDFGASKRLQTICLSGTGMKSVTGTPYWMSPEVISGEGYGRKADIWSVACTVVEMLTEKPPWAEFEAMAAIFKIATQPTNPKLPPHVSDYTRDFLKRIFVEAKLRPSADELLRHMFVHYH
How it is done: as §1

The target in a further test is T10, p38delta (Homo sapiens, UniProt O15264).
T10 construct: purchased ProQinase (Freiburg, Germany)
T10 sequence (O15264 1-365): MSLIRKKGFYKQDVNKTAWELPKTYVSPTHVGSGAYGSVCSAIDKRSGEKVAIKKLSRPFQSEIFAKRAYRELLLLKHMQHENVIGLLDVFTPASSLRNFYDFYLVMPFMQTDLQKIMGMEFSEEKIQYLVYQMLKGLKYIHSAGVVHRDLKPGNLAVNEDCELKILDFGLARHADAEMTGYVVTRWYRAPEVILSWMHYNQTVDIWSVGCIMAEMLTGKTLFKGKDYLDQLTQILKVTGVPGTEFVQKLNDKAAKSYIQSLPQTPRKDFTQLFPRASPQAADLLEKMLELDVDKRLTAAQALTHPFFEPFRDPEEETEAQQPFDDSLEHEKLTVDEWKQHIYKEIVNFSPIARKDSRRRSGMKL
How it is done: as §1

The target of a further test is T11, RPS6KA3 (Homo sapiens, UniProt P51812).
T11 construct: purchased ProQinase (Freiburg, Germany)
How it is done: as §1

T4 sequence (Q16816 whole entry): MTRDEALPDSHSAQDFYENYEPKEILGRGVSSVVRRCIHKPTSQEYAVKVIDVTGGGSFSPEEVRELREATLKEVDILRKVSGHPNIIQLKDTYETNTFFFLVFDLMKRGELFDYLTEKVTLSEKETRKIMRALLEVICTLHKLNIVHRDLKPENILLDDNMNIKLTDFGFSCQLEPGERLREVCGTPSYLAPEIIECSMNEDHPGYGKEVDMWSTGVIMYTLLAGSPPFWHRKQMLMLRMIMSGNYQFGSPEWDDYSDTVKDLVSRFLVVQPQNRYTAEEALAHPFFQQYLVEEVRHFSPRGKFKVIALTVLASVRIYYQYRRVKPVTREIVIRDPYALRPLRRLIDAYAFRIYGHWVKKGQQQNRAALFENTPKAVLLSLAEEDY
T3 sequence (Q16288 32-839): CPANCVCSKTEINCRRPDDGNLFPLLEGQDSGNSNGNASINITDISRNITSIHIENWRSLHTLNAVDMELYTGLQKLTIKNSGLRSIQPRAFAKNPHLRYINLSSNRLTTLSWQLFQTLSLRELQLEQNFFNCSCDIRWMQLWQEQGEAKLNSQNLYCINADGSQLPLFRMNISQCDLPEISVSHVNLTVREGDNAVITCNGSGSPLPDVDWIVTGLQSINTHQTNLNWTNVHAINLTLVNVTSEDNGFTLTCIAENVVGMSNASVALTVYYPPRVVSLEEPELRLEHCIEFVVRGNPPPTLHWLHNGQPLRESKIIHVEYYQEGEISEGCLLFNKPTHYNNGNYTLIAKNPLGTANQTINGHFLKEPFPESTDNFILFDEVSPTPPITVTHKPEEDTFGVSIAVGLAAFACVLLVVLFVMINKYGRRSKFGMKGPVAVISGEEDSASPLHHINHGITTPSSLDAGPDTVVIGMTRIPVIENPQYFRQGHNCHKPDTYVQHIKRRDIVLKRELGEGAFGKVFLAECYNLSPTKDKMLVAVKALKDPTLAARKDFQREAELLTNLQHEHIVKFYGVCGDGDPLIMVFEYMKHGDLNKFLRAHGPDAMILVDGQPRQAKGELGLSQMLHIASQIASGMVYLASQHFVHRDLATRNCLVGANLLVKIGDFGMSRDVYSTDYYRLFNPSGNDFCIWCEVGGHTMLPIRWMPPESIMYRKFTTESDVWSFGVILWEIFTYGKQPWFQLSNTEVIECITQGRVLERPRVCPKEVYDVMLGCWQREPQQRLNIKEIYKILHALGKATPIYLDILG
T2 sequence (P37173 23-567): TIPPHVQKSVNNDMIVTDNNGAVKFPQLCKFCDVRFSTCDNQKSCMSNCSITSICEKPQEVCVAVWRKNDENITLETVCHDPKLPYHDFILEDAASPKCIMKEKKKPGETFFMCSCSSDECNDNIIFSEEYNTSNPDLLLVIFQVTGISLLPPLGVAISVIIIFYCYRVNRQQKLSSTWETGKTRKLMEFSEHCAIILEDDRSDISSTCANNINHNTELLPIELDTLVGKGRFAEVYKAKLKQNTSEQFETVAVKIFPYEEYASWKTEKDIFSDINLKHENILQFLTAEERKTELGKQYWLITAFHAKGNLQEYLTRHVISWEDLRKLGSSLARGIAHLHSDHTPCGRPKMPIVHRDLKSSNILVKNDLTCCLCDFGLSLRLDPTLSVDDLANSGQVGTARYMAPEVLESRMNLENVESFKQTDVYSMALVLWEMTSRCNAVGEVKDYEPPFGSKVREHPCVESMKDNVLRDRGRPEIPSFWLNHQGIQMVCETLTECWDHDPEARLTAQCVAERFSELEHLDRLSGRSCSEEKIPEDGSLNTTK
T5 sequence (Q9BWU1 whole entry): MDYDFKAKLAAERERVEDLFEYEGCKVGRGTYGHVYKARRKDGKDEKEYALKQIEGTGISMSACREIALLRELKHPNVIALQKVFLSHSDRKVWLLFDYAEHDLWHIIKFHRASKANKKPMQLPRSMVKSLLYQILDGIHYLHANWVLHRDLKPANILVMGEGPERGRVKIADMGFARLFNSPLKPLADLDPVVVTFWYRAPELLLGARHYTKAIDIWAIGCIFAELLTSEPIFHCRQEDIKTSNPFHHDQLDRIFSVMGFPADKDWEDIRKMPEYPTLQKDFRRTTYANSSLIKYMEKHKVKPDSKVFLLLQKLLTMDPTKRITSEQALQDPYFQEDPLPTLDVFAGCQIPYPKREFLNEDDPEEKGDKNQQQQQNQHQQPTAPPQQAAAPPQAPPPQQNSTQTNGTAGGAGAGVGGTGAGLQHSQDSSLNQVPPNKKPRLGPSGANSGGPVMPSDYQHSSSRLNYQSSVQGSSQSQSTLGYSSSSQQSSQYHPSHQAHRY
T5 sequence (P24863 whole entry partner): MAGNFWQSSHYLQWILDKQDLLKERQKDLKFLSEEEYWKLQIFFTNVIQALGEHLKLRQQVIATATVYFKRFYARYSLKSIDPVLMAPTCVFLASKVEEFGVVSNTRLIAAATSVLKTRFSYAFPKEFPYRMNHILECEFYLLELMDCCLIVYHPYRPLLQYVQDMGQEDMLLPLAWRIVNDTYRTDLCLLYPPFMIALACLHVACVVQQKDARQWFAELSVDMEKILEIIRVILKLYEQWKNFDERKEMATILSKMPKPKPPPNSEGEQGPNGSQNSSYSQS
T11 sequence (P51812 whole entry): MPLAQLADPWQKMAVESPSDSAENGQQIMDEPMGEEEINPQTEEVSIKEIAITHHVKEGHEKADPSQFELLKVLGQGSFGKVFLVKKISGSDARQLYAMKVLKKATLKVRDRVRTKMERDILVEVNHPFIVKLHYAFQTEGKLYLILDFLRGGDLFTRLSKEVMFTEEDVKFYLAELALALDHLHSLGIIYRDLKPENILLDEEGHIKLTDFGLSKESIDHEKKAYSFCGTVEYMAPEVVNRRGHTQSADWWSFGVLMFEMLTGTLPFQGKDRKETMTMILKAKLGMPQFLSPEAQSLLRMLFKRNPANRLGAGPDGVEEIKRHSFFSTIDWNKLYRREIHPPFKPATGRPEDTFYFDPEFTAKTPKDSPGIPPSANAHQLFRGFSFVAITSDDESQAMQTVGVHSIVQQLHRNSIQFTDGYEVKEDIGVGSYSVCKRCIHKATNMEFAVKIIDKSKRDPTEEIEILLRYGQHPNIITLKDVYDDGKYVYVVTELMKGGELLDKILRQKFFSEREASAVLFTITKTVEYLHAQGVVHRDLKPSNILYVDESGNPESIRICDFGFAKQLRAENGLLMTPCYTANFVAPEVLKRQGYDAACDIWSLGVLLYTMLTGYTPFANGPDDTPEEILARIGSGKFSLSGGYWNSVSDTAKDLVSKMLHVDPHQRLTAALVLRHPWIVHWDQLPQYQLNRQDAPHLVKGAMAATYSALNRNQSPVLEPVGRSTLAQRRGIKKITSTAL
T7 sequence (P49759 whole entry): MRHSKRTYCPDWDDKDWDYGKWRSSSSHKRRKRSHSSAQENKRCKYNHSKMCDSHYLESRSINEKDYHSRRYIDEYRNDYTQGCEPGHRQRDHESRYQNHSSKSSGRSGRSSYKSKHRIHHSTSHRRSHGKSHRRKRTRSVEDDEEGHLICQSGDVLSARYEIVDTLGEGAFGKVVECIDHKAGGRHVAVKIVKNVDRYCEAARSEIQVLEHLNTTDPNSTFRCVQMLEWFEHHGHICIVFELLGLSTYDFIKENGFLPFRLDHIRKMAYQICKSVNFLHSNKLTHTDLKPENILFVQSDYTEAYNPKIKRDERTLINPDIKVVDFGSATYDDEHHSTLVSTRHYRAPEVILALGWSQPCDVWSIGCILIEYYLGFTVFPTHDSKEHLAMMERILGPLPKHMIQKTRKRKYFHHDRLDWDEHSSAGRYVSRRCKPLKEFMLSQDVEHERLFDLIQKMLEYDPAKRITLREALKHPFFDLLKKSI

On to `O=C(Nc1ccc(F)c(Nc2ccc3c(c2)CCCCC3=O)c1)c1cccc(F)c1` [Compound 109], for which the Residual activity was 80 % of control at PDK1 (1.0E-05 M); 98 % of control at PDK1 (1.0E-06 M); 79 % of control at TGFBR2 (1.0E-05 M); 82 % of control at TGFBR2 (1.0E-06 M); 97 % of control at TRKC (1.0E-05 M); 112 % of control on TRKC (1.0E-06 M). In addition, the Residual activity is recorded as 86 % of control on PHKG1 (1.0E-05 M); 96 % of control on PHKG1 (1.0E-06 M); 74 % of control at CDK19/CycC (1.0E-05 M); 83 % of control at CDK19/CycC (1.0E-06 M); 88 % of control on GRK2 (1.0E-05 M); 84 % of control on GRK2 (1.0E-06 M). Besides, the Residual activity at CLK1 (1.0E-05 M) is reported as 96 % of control; on CLK1 (1.0E-06 M), 105 % of control; at MYLK (1.0E-05 M) it was 64 % of control; on MYLK (1.0E-06 M) it was 81 % of control; on MEKK2 (1.0E-05 M), 101 % of control; on MEKK2 (1.0E-06 M) it was 99 % of control. Besides, the Residual activity on p38delta (1.0E-05 M) is listed as 98 % of control; at p38delta (1.0E-06 M), 91 % of control; on RPS6KA3 (1.0E-05 M), 84 % of control; on RPS6KA3 (1.0E-06 M), 90 % of control.
As to `O=C(Cc1ccccc1)Nc1ccc(F)c(Nc2ccc3c(c2)CCCCC3=O)c1` [Compound 100], the Residual activity on PDK1 (1.0E-05 M) is reported as 57 % of control; on PDK1 (1.0E-06 M), 102 % of control; on TGFBR2 (1.0E-05 M), 74 % of control; on TGFBR2 (1.0E-06 M), 79 % of control; on TRKC (1.0E-05 M), 89 % of control; on TRKC (1.0E-06 M), 109 % of control. For the same molecule, the Residual activity was 75 % of control on PHKG1 (1.0E-05 M); 95 % of control on PHKG1 (1.0E-06 M); 77 % of control on CDK19/CycC (1.0E-05 M); 81 % of control on CDK19/CycC (1.0E-06 M); 97 % of control on GRK2 (1.0E-05 M); 97 % of control on GRK2 (1.0E-06 M). Further, the Residual activity is listed as 79 % of control on CLK1 (1.0E-05 M); 99 % of control at CLK1 (1.0E-06 M); 78 % of control at MYLK (1.0E-05 M); 92 % of control at MYLK (1.0E-06 M); 108 % of control at MEKK2 (1.0E-05 M); 108 % of control at MEKK2 (1.0E-06 M). Moreover, the Residual activity on p38delta (1.0E-05 M) is listed as 85 % of control; on p38delta (1.0E-06 M), 93 % of control; on RPS6KA3 (1.0E-05 M), 80 % of control; at RPS6KA3 (1.0E-06 M) it was 97 % of control.
